5 molecules from patent publication US8048888B2, “Anti-proliferative combination therapy using certain platinum-based chemotherapeutic agents and EGFR inhibitors or pyrimidine analogues” (Agennix AG, priority 2005, dated 2011) can be followed below.

The subject of data set [1] is UM-UC-3 cell line. In words: SRB assay, sequential: JM-118 48 hours, followed by gemcitabine 48 hours. It is filed as cell-based. The note with it: Homo sapiens, UMUC3, JM118 first, read-out: Growth inhibition. As for the experimental part: (§1) Gemcitabine was dissolved in saline at a concentration of 10 mM. Cells were seeded at 1,500 cells per well.
Cells were incubated with both compounds sequentially, wherein cells were incubated with JM118 first.

Data set [2] concerns UM-UC-3 cell line. Nature of the data set: SRB assay, sequential: gemcitabine 48 hours, followed by JM118 48 hours. It counts as cell-based. The note with it: Homo sapiens, UMUC3, Gemcitabine first, read-out: Growth inhibition. As for the experimental part: as §1
Cells were incubated with both compounds sequentially, wherein cells were incubated with gemcitabine first.

Data set [3] has as its system MX-1 tumor (human breast carcinoma). The note with it: for Median tumor volume / T/C %: capecitabine 750 mg/kg/adm PO Q1Dx8. As for the experimental part:
Healthy female SWISS nu/nu mice, 6-7 weeks old, 17-22 g, were obtained from Charles River (L'Arbresle, France). Animals were acclimated for seven days in a specific-pathogen-free (SPF) animal care unit before treatment. MX-1 tumor implants were purchased and provided by Oncodesign (Dijon, France). MX-1 is a human breast carcinoma cell line.
To induce MX-1 tumors in nude mice ten female SWISS nude mice were subcutaneously implanted with thawed fragments of MX-1 tumor 24 hours after whole body irradiation with a γ-source (Co^60, INRA, Dijon, France). Mice were continuously monitored and terminated when tumors reached 700 to 1000 mm^3. Tumors were then surgically excised and homogenous fresh fragments were subcutaneously implanted in the right flanks of 130 SWISS nude mice.
Ninety (90) mice were randomized into 9 groups of 10 mice each.
Suspensions were continuously agitated during administration to mice.
The treatment schedule was as follows (all dosage indicated are dosages per administration): • Mice from group 1 received one daily PO (oral) administration of satraplatin vehicle (arachis oil, see above) for 5 consecutive days from D21 (day 21) to D25 (referred to as Q1D×5) in combination with one daily PO administration of capecitabine vehicle (Citrate buffer containing Arabic gum, see above) for 8 consecutive days from D21 to D28 (Q1D×8), • Mice from group 2 received one daily PO administration of capecitabine at 750 mg/kg (milligram per kilogram of body weight) for 8 consecutive days from D21 to D28 (Q1D×8), • Mice from group 3 received one daily PO administration of satraplatin at 5 mg/kg for 5 consecutive days from D21 to D25 (Q1D×5), • Mice from group 4 received one daily PO administration of satraplatin at 15 mg/kg for 5 consecutive days from D21 to D25 (Q1 D×5), • Mice from group 5 received one daily PO administration of satraplatin at 25 mg/kg for 5 consecutive days from D21 to D25 (Q1D×5), • Mice from group 6 received one daily PO administration of satraplatin at 45 mg/kg for 5 consecutive days from D21 to D25 (Q1D×5), • Mice from group 7 received one daily PO administration of satraplatin at 5 mg/kg for 5 consecutive days from D21 to 025 (Q1D×5) in combination with one daily PO administration of capecitabine at 750 mg/kg for 8 consecutive days from D21 to D28 (Q1D×8), • Mice from group 8 received one daily PO administration of satraplatin at 15 mg/kg for 5 consecutive days from D21 to D25 (Q1D×5) in combination with one daily PO administration of capecitabine at 750 mg/kg for 8 consecutive days from D21 to D28 (Q1D×8), • Mice from group 9 received one daily PO administration of satraplatin at 25 mg/kg for 5 consecutive days from D21 to D25 (Q1D×5) in combination with one daily PO administration of capecitabine at 750 mg/kg for 8 consecutive days from D21 to D28 (Q1D×8). Satraplatin was administered 30 minutes after capecitabine. Satraplatin and capecitabine were administered at a dose volume of 10 ml/kg body weight.
During the course of the experiment, viability and behaviour of mice were recorded every day. Mice body weight and tumor volume was recorded twice a week. Mice were terminated when tumor weight was equivalent to 10% of body weight or when a body weight loss of 20% was observed.
Tumor growth inhibition (T/C %) is defined as the ratio of the median tumor volume of a given treated group (test or reference substance) versus the equivalent median volume from the control group. T/C % is calculated as follows: […]
The optimal value is the minimal T/C % ratio that reflects the maximal tumor growth inhibition achieved.
Tumor Log cell kill was calculated using the following formula:
[formula] wherein DT is the doubling time of the tumor.

In a further data set the test system is MCF7 cell line. In words: SRB assay, simultaneous JM118 and 5FU, 48 hours. It counts as cell-based. The note with it: Homo sapiens, read-out: Growth inhibition. As for the experimental part: For this experiment the human colorectal carcinoma cell line HCT 116 (ATCC order number: CCL-247; Cancer Res (1981) 41, 1751; J Natl Cancer Inst (1982) 69, 767) and the human adenocarcinoma cell line MCF7 (ATCC order number: HTB-22; Cancer Res (1983) 43, 2831; Science (1985) 230, 943) were used.
5FU was dissolved in 0.1% DMSO at a concentration of 20 mM.
Cells were incubated with both compounds simultaneously.

A further data set relates to A129. Nature of the data set: SRB cytotoxicity assay, 48 hours, parental cell line A129. It is filed as cell-based. The note with it: A129, 48 hours. The method, then: (§2) The parental non-mutated cell line A129 was used as control.
(§3) Briefly, cells were plated in 96 well dishes 24 hours prior to compound addition. The assay was terminated with the addition of cold TCA to a final concentration of 10% and the plates were incubated for one hour at 4° C. The plates were then washed 5 times with water and 100 μl of a Sulforhodamine B solution ([…]) was added to each well. The plate was then incubated for 10 minutes at room temperature before removal of unbound dye by washing with 1% acetic acid. The bound dye was solubilized with 10 mM Trizma base and the absorbance read at OD570.
(§4) Numbers in brackets indicate how often experiments were performed. In each single experiment a minimum of three replica wells was used for each drug concentration and cell line. Shown are mean values and standard deviations of the IC50s, as determined in the individual experiments. RR denominates the relative resistance, i.e. the relative level of resistance conferred to the indicated drugs.
(Sulforhodamine B stains cellular protein and so reports cell mass.)

The test system of a further data set is A129 cp80 cell line. Nature of the data set: SRB cytotoxicity assay, 48 hours, cisplatin-resistant A129 cp80. It counts as cell-based. As for the experimental part: as §2, §3, §4

Molecules are shown by their SMILES. pIC50: −log10 of the molar value. Like-named read-outs stand apart in the source and are kept apart here.

In the case of `Nc1ccn([C@@H]2O[C@H](CO)[C@@H](O)C2(F)F)c(=O)n1` [Gemcitabine, 2′,2′-difluorodeoxycytidine], in the data set with UM-UC-3 cell line [1] (JM118 0 + Gemcitabine 0.0020 μM), the inhibition at 0.002 µM is 2.6%. Also, the inhibition at 0.0039 µM in the data set on UM-UC-3 cell line [1] (JM118 0 + Gemcitabine 0.0039 μM) is 8.7%. In addition, in the data set on UM-UC-3 cell line [1] (JM118 0 + Gemcitabine 0.0078 μM), the inhibition at 0.0078 µM is 23.4%. Moreover, in the data set on UM-UC-3 cell line [1] (JM118 0 + Gemcitabine 0.0156 μM), the inhibition at 0.0156 µM amounted to 43.9%. The inhibition at 0.0313 µM in the data set on UM-UC-3 cell line [1] (JM118 0 + Gemcitabine 0.0313 μM) turned out to be 57.8%. In addition, the inhibition at 0.0625 µM in the data set with UM-UC-3 cell line [1] (JM118 0 + Gemcitabine 0.0625 μM) is 63.3%. Also, the inhibition at 0.0015625 µM in the data set with UM-UC-3 cell line [2] (JM118 0 + Gemcitabine 0.0015625 μM) is 0.2%. Moreover, the inhibition at 0.003125 µM in the data set on UM-UC-3 cell line [2] (JM118 0 + Gemcitabine 0.003125 μM) turned out to be 1.2%. Further, in the data set with UM-UC-3 cell line [2] (JM118 0 + Gemcitabine 0.00625 μM), the inhibition at 0.00625 µM worked out at 8.3%. For the same molecule, the inhibition at 0.0125 µM in the data set with UM-UC-3 cell line [2] (JM118 0 + Gemcitabine 0.0125 μM) came out at 41.7%. For the same molecule, in the data set with UM-UC-3 cell line [2] (JM118 0 + Gemcitabine 0.025 μM), the inhibition at 0.025 µM worked out at 87.8%. Moreover, the inhibition at 0.05 µM in the data set on UM-UC-3 cell line [2] (JM118 0 + Gemcitabine 0.05 μM) was 103%.

As to `CCCCCOC(=O)Nc1nc(=O)n([C@@H]2O[C@H](C)[C@@H](O)[C@H]2O)cc1F` [Capecitabine], the “tumor log cell kill” value in data set [3] (capecitabine 750 mg/kg alone) amounted to 0.2. Also, the Median tumor volume in data set [3] (D21) worked out at 98.8 mm^3; in data set [3] (D26) it was 217.5 mm^3; in data set [3] (D29) it was 322.1 mm^3; in data set [3] (D33) it was 498.2 mm^3; in data set [3] (D36) it was 711.0 mm^3; in data set [3] (D40), 1046.3 mm^3. Besides, the Median tumor volume in data set [3] (D43) is given as 1598.0 mm^3. Moreover, the T/C % in data set [3] (D21) was 124%; in data set [3] (D26), 114%; in data set [3] (D29) it was 81%; in data set [3] (D33), 65%; in data set [3] (D36) it was 62%; in data set [3] (D40), 66%. In data set [3] (D43), the T/C % was determined as 68%.

`CC(=O)[O][Pt]([NH2])([Cl])([Cl])([NH]C1CCCCC1)[O]C(C)=O` [Satraplatin]: the toxicity in mice result in data set [3] (satraplatin 45 mg/kg) is on record as “toxic effects”.

In the case of `O=c1[nH]cc(F)c(=O)[nH]1` [5FU, 5-fluorouracil], the inhibition at 0.3125 µM with MCF7 cell line (JM118 0 + 5FU 0.3125 μM) was 1.1%. Besides, in the data set with MCF7 cell line (JM118 0 + 5FU 0.625 μM), the inhibition at 0.625 µM is 2.9%. Moreover, in the data set with MCF7 cell line (JM118 0 + 5FU 1.25 μM), the inhibition at 1.25 µM came to 7.2%. Also, in the data set with MCF7 cell line (JM118 0 + 5FU 2.5 μM), the inhibition at 2.5 µM came out at 17.3%. The inhibition at 5 µM in the data set with MCF7 cell line (JM118 0 + 5FU 5 μM) worked out at 37.4%. Further, the inhibition at 10 µM in the data set on MCF7 cell line (JM118 0 + 5FU 10 μM) was 67.7%.

For the molecule `N.N.[Cl][Pt][Cl]` [Cisplatin], the pIC50 is 6.64 in the data set on A129 and 4.82 in the data set on A129 cp80 cell line (A129 cp80, 48 hours). In addition, the “RR (relative resistance)” value in the data set on A129 cp80 cell line (A129 cp80 versus A129) is reported as 80 +/− 25.

By inhibition is commonly meant the drop in the measured response relative to a control, in per cent. The term pIC50 denotes the negative decadic logarithm of the IC50, by convention in mol/L.
